Reference: the supplement of paper PMC10307832

How the values were obtained:
Experiment in all cases: relative viability (nuclei count vs DMSO), 5 days (fraction); higher = more cells survive
Ispinesib + Linsitinib = compound: Cc1ccc(C(=O)N(CCCN)[C@@H](c2nc3cc(Cl)ccc3c(=O)n2Cc2ccccc2)C(C)C)cc1 [Ispinesib] + C[C@]1(O)C[C@@H](c2nc(-c3ccc4ccc(-c5ccccc5)nc4c3)c3c(N)nccn32)C1 [Linsitinib] (partner 1 µM)
Outline: (§1)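 Relative viability divides the nuclei count in treated wells by that in vehicle wells. Lung cancer cell lines were seeded in 1536-well plates, dosed by pin tool the next day, and fixed and stained after 5 days in one step with final 0.05% Triton X-100, 1% formaldehyde and 1 ug/ml Hoechst. Dosing was a single drug or a fixed anchor-drug dose plus five library-drug doses (not always all listed) in √10 steps, and values are medians of duplicate plates imaged at 4×.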

Linsitinib + Dasatinib = compound: C[C@]1(O)C[C@@H](c2nc(-c3ccc4ccc(-c5ccccc5)nc4c3)c3c(N)nccn32)C1 [Linsitinib] + Cc1nc(Nc2ncc(C(=O)Nc3c(C)cccc3Cl)s2)cc(N2CCN(CCO)CC2)n1 [Dasatinib] (partner 0.075 µM)
Outline: as §1

Linsitinib + Foretinib = compound: C[C@]1(O)C[C@@H](c2nc(-c3ccc4ccc(-c5ccccc5)nc4c3)c3c(N)nccn32)C1 [Linsitinib] + COc1cc2c(Oc3ccc(NC(=O)C4(C(=O)Nc5ccc(F)cc5)CC4)cc3F)ccnc2cc1OCCCN1CCOCC1 [Foretinib] (partner 0.25 µM)
Outline: as §1

Ispinesib + Pictilisib = compound: Cc1ccc(C(=O)N(CCCN)[C@@H](c2nc3cc(Cl)ccc3c(=O)n2Cc2ccccc2)C(C)C)cc1 [Ispinesib] + CS(=O)(=O)N1CCN(Cc2cc3nc(-c4cccc5[nH]ncc45)nc(N4CCOCC4)c3s2)CC1 [Pictilisib] (partner 1 µM)
Outline: as §1

## UMC-11
Ispinesib + Linsitinib; first compound 0.001 µM
  relative viability: 1.06
Ispinesib + Linsitinib; first compound 0.003162 µM
  relative viability: 1.05
Ispinesib + Linsitinib; first compound 0.01 µM
  relative viability: 1.05
Ispinesib + Linsitinib; first compound 0.03162 µM
  relative viability: 0.449
Ispinesib + Linsitinib; first compound 0.1 µM
  relative viability: 0.244
Linsitinib + Dasatinib; first compound 0.01 µM
  relative viability: 0.462
Linsitinib + Dasatinib; first compound 0.03162 µM
  relative viability: 0.44
Linsitinib + Dasatinib; first compound 0.1 µM
  relative viability: 0.501
Linsitinib + Dasatinib; first compound 1 µM
  relative viability: 0.438
Linsitinib + Foretinib; first compound 0.01 µM
  relative viability: 0.976
Linsitinib + Foretinib; first compound 0.03162 µM
  relative viability: 0.89
Linsitinib + Foretinib; first compound 0.1 µM
  relative viability: 1.03
Linsitinib + Foretinib; first compound 1 µM
  relative viability: 1.02
Ispinesib + Pictilisib; first compound 0.001 µM
  relative viability: 0.653
Ispinesib + Pictilisib; first compound 0.003162 µM
  relative viability: 0.94
Ispinesib + Pictilisib; first compound 0.01 µM
  relative viability: 0.701
Ispinesib + Pictilisib; first compound 0.03162 µM
  relative viability: 0.2
Ispinesib + Pictilisib; first compound 0.1 µM
  relative viability: 0.263
